Read-outs that look alike come from different tables or passages of the source.
Key:
A549 cancer cells = experiment: MTT cell viability assay, dark or photoactivated; type: cell-based, human; conditions: A549; for IC50: 4 h incubation; for IC50 / PI green light (IC50,dark/IC50,light) / PI red light (IC50,dark/IC50,light) / PI blue light (IC50,dark/IC50,light): MTT; for PI green light (IC50,dark/IC50,light): green light 530 nm; for PI green light (IC50,dark/IC50,light) / PI red light (IC50,dark/IC50,light) / PI blue light (IC50,dark/IC50,light): 24.1 J cm^–2; for PI/Dose: dose 24.1 J cm‐2, PI from MTT; for PI red light (IC50,dark/IC50,light): red light 655 nm; for PI blue light (IC50,dark/IC50,light): blue light 460 nm
Protocol: Cells were cultured in 96-well plates at a density of 3000 (A549), 2500 (HeLa), or 5000 (PC-3, 1BR.3.G, and MRC-5) cells per well in cell culture medium and allowed to attach for 24 h. Solutions of the complexes at different concentrations were prepared for cell treatments. In all cases, the solid compounds were weighed using an analytical balance (Mettler Toledo AX205DR) to ensure precise measurements. Subsequently, 5 mM solutions were prepared using DMSO. Solutions were then diluted in water to reach a concentration of 1 mM and then, aliquots were taken and diluted in culture medium to obtain solutions ranging from 0 to 50 μM. […] The cells were treated with these solutions in dark conditions or following the photoactivation protocol (see below). 48 h later the treatments were removed, and cells were washed with phosphate-buffered saline (PBS).
Initially, the effect of the complexes on the cell viability was determined by the 3-(4,5-dimethylthiazol-2-yl)-2,5-diphenyltetrazolium bromide (MTT) assay.[147] The cells were incubated for 2 h with 100 μL of culture medium together with 10 μL of MTT (Sigma-Aldrich) at 0.5 mg/mL. After discarding the medium, DMSO was added to each well to dissolve the purple formazan crystals. The absorbance of each well was determined on a Multiscan Plate Reader (Synergy 4, Biotek, Winooski) at a wavelength of 570 nm. Cell viability was also assessed using the CyQUANT Direct Cell Proliferation Assay (Thermo Fisher Scientific), following the manufacturer’s instructions. Briefly, after the treatments, the cells were washed with PBS, and an equal volume of culture medium and CyQUANT mix was added to each well. The plates were then incubated for 1 h at 37 °C. Subsequently, the fluorescence intensity was bottom read using a Multiscan Plate Reader (Synergy 4, Biotek, Winooski) with excitation and emission filters of 485 and 528 nm, respectively. In both assays, at least three replicates were measured for each treatment. The concentration that reduces the cell viability by 50% (IC50) was established using the Gen5 software (BioTek). Three independent experiments were carried out for each compound. […] The phototoxicity index (PI = IC50,dark/IC50,light) was determined.
To assess the photodynamic activity of the complexes, cells were incubated with the complexes for 4 h to enable their intracellular accumulation. The cells were then irradiated with light with a wavelength of 460 nm (blue), 530 nm (green), or 655 nm (red) for 1 h using a LED system (LuxLight) with an effective power of 6.7 mW cm^–2, which provides a total light dose of 24.1 J cm^–2. The LED system was positioned at 25 mm from the cell culture plates.

[1] = 1O2 quantum yield determination with DPBF; conditions: acetonitrile; for 1O2 generation quantum yield (ϕΔ), DPBF: 470 nm blue light
Protocol: It was performed for complexes 1–8 in acetonitrile according to a relative procedure adapted from the literature[132]−[134] based on monitoring the oxidation of 1,3-diphenylisobenzofuran (DPBF, yellow) to 1,2-dibenzoylbenzene (colorless) photosensitized by the Ir(III) complexes. DPBF was used as an ^1O2 scavenger due to its fast reaction with this molecule. Fresh stock air-equilibrated solutions of photosensitizers (6.00 × 10^–6 M) and DPBF (1.50 × 10^–4 M) in acetonitrile were prepared. In a quartz cell, 1 mL of DPBF solution, 0.5 mL of complex solution, and 1.5 mL of acetonitrile were mixed to prepare a final solution with 5.00 × 10^–5 M DPBF and 1.00 × 10^–6 M complex. The final solutions were studied by recording UV–vis absorption spectra at room temperature in dark conditions (over a period of 6 min with time intervals of 2 min), under blue light irradiation (λexc = 470 nm, “Medusa” photoreactor) and under green light irradiation (λexc = 530 nm, “Medusa” photoreactor) for 5 s irradiation intervals during a total exposure period of 20 s. Absorption UV–vis spectra were recorded after every irradiation interval.
The consumption of DPBF probe was measured by monitoring its absorbance intensity decrease at 410 nm with irradiation time. ^1O2 generation quantum yield (ϕΔ) was calculated from eq 1 using Rose Bengal or [Ru(bpy)3]^2+ as reference for complexes with pbpz and pbpn ligands, respectively: [drawing 22] 1 where s and ref subscripts correspond to the complex and the reference, ϕΔ is the ^1O2 generation quantum yield (0.53 for Rose Bengal[135] and 0.56 for [Ru(bpy)3]Cl2[132] in degassed acetonitrile), S is the slope of the plots of the −ln(normalized absorbance) of DPBF at 410 nm vs the irradiation time, and F is the correction factor of absorption, which is given by F = 1–10^–O.D. (where O.D. is the optical density at 470 nm of solutions of complexes and references). The reproducibility of the results was confirmed by performing each experiment three times.
The stability of DPBF probe was studied in dark conditions and under light irradiation. In dark conditions and under green light irradiation the probe remains unaltered. However, under blue light irradiation, a photobleaching of DPBF was observed. Probe consumption was approximately 6.5% every 5 s. Therefore, a working interval of 20 s was chosen, where 75% of the probe remains stable. To calculate the ϕΔ, a correction factor was applied to the absorbance at 410 nm: a 6.5% of the previous value was added to each absorbance to counteract self-consumption of the probe (i.e., to the absorbance at 10 s, a 6.5% of the absorbance at 5 s was added).

calf thymus DNA (CT-DNA) = experiment: Competitive EtBr displacement assay; type: binding; conditions: CT-DNA saturated with EtBr; 1 h, room temperature; read-out: C50 (50% reduction of EtBr fluorescence)
Protocol: To investigate the capacity of the complexes to intercalate into DNA, the competitive ethidium displacement assay was carried out as previously described[149] with minor modifications. Stock solutions of 20 μM calf thymus DNA (CT-DNA) and 25 μM Ethidium bromide (EtBr) were prepared in saline TE (50 mM NaCl, 10 mM tris(hydroxymethyl) aminomethane–HCl, 0.1 mM ethylenediaminetetracetic acid (EDTA), pH 7.4). Serial dilutions of metal complexes were prepared at concentrations ranging from 20 to 400 μM from a 1 mM stock solution containing 20% DMSO. The assay was carried out by mixing 25 μL of CT-DNA and 25 μL of EtBr with 50 μL of each compound dilution, on a black 96-well plate. The plate was incubated at room temperature for 1 h and the fluorescence was measured on a Synergy 4 microplate reader (Biotek, Winooski), with excitation wavelength set to 500 nm, and emission wavelength set to 530–800 nm. The fluorescence emission at 590 nm was used to measure the C50, corresponding to the concentration of compound required to induce a 50% decrease in the fluorescence of the EtBr. Experiments were performed in triplicate.

[2] = blue light 460 nm 1 h (24.1 J cm^–2), 48 h, read-out: IC50 blue light
[3] = green light 530 nm 1 h (24.1 J cm^–2), 48 h, read-out: IC50 green light
[4] = kept in the dark, viability after 48 h, read-out: IC50 dark
[5] = red light 655 nm 1 h (24.1 J cm^–2), 48 h, read-out: IC50 red light

Cc1c(C)c(C)[c-](C)c1C.[Cl][Ir]1[c]2cccc3c4nc5ccccc5nc4c4ccc[n+]1c4c23 [complex 1, [(η^5-C5Me5)IrCl(pbpz)]]
IC50 (A549 cancer cells; [2]): 2900 ± 400 nM | IC50 (A549 cancer cells; [3]): 5800 ± 100 nM | IC50 (A549 cancer cells; [4]): 8000 ± 1000 nM | PI green light (IC50,dark/IC50,light) (A549 cancer cells): 1.4 | 1O2 generation quantum yield (ϕΔ), DPBF [1]: 0.0780 | IC50 (calf thymus DNA (CT-DNA)): 192 µM

Cc1c(C)c(C)[c-](C)c1C.F[B-](F)(F)F.c1ccc2cc3nc4c5ccc[n+]6c5c5[c](cccc5c4nc3cc2c1)[Ir]6[n+]1cc[nH]c1 [complex 4, [(η^5-C5Me5)Ir(Im)(pbpn)]BF4]
PI/Dose (A549 cancer cells; 530 nm): 12.2 | IC50 (A549 cancer cells; [2]): 3.2 ± 2 nM | IC50 (A549 cancer cells; [3]): 10 ± 3 nM | IC50 (A549 cancer cells; [4]): 2900 ± 1000 nM | IC50 (A549 cancer cells; [5]): 120 ± 50 nM | PI green light (IC50,dark/IC50,light) (A549 cancer cells): 294 | PI red light (IC50,dark/IC50,light) (A549 cancer cells): 25 | 1O2 generation quantum yield (ϕΔ), DPBF [1]: 0.9894 | Slope (S) of ‐ln(normalized Abs) vs time, photooxidation of DPBF ([1]; λir = 470 nm): 0.0890 | Slope (S) of ‐ln(normalized Abs) vs time, photooxidation of DPBF ([1]; λir = 530 nm): 0.0058 | IC50 (calf thymus DNA (CT-DNA)): 15.9 µM

Cc1c(C)c(C)[c-](C)c1C.F[B-](F)(F)F.c1ccc2nc3c4ccc[n+]5c4c4[c](cccc4c3nc2c1)[Ir]5[n+]1ccn(CCN2CCCCC2)c1 [complex 5, [(η^5-C5Me5)Ir(Imepip)(pbpz)]BF4]
IC50 (A549 cancer cells; [2]): 390 ± 100 nM | IC50 (A549 cancer cells; [3]): 520 ± 20 nM | IC50 (A549 cancer cells; [4]): 830 ± 20 nM | PI blue light (IC50,dark/IC50,light) (A549 cancer cells): 2.1 | PI green light (IC50,dark/IC50,light) (A549 cancer cells): 1.6 | 1O2 generation quantum yield (ϕΔ), DPBF [1]: 0.026 | IC50 (calf thymus DNA (CT-DNA)): 54.6 µM

Cc1c(C)c(C)[c-](C)c1C.F[B-](F)(F)F.c1ccc2cc3nc4c5ccc[n+]6c5c5[c](cccc5c4nc3cc2c1)[Ir]6[n+]1ccn(CCN2CCCCC2)c1 [complex 6, [(η^5-C5Me5) Ir(Imepip)(pbpn)]BF4]
PI/Dose (A549 cancer cells; 460 nm): 54.6 | PI/Dose (A549 cancer cells; 655 nm): 2.6 | IC50 (A549 cancer cells; [2]): 1.5 ± 0.5 nM | IC50 (A549 cancer cells; [3]): 11 ± 4 nM | IC50 (A549 cancer cells; [4]): 2000 ± 100 nM | IC50 (A549 cancer cells; [5]): 32 ± 10 nM | PI green light (IC50,dark/IC50,light) (A549 cancer cells): 179 | PI red light (IC50,dark/IC50,light) (A549 cancer cells): 63 | 1O2 generation quantum yield (ϕΔ), DPBF [1]: 0.8118 | Slope (S) of ‐ln(normalized Abs) vs time, photooxidation of DPBF ([1]; λir = 470 nm): 0.0657 | Slope (S) of ‐ln(normalized Abs) vs time, photooxidation of DPBF ([1]; λir = 530 nm): 0.0069 | IC50 (calf thymus DNA (CT-DNA)): 32.8 µM

Cc1c(C)c(C)[c-](C)c1C.F[B-](F)(F)F.c1ccc(Cn2cc[n+]([Ir]3[c]4cccc5c6nc7ccccc7nc6c6ccc[n+]3c6c45)c2)cc1 [complex 7, [(η^5-C5Me5)Ir(bzIm)(pbpz)]BF4]
IC50 (A549 cancer cells; [2]): 650 ± 200 nM | IC50 (A549 cancer cells; [3]): 470 ± 40 nM | IC50 (A549 cancer cells; [4]): 770 ± 200 nM | PI blue light (IC50,dark/IC50,light) (A549 cancer cells): 1.2 | PI green light (IC50,dark/IC50,light) (A549 cancer cells): 1.7 | 1O2 generation quantum yield (ϕΔ), DPBF [1]: 0.0204 | IC50 (calf thymus DNA (CT-DNA)): 95.4 µM

Cc1c(C)c(C)[c-](C)c1C.F[B-](F)(F)F.c1ccc(Cn2cc[n+]([Ir]3[c]4cccc5c6nc7cc8ccccc8cc7nc6c6ccc[n+]3c6c45)c2)cc1 [complex 8, [(η^5-C5Me5)Ir(bzIm)(pbpn)]BF4]
IC50 (A549 cancer cells; [2]): 0.2 ± 0.1 nM | IC50 (A549 cancer cells; [3]): 2.1 ± 0.4 nM | IC50 (A549 cancer cells; [4]): 150 ± 50 nM | IC50 (A549 cancer cells; [5]): 30 ± 20 nM | PI green light (IC50,dark/IC50,light) (A549 cancer cells): 71 | PI red light (IC50,dark/IC50,light) (A549 cancer cells): 5 | 1O2 generation quantum yield (ϕΔ), DPBF [1]: 0.99 | Slope (S) of ‐ln(normalized Abs) vs time, photooxidation of DPBF ([1]; λir = 470 nm): 0.0771 | Slope (S) of ‐ln(normalized Abs) vs time, photooxidation of DPBF ([1]; λir = 530 nm): 0.0061 | IC50 (calf thymus DNA (CT-DNA)): 15.9 µM

Reference: paper PMC10859961, “Ir(III) Half-Sandwich Photosensitizers with a π-Expansive Ligand for Efficient Anticancer Photodynamic Therapy” (Journal of Medicinal Chemistry, 2024)
